Laboratory results taken from the kinase profiling compilation of Christmann-Franck et al. (2016).

Key:
Assay in all cases: KINOMEscan competition binding
Settings in all cases: compound 10.0 µM
[1] = biological target: EPHB2 (human) (UniProt P29323)
[2] = biological target: PDPK1 (human) (UniProt O15530)
[3] = biological target: PAK2 (human) (UniProt Q13177)
[4] = biological target: CDK18 (human) (UniProt Q07002)
[5] = biological target: DYRK1A (human) (UniProt Q13627)
[6] = biological target: BRSK2 (human) (UniProt Q8IWQ3)
[7] = biological target: TEK (human) (UniProt Q02763)
[8] = tested on: RET (human), P07949 [V804L]
[9] = biological target: NEK9 (human) (UniProt Q8TD19)
[10] = biological target: MKNK1 (human) (UniProt Q9BUB5)
Chain of MKNK1 (human) (Q9BUB5 whole entry, looked up): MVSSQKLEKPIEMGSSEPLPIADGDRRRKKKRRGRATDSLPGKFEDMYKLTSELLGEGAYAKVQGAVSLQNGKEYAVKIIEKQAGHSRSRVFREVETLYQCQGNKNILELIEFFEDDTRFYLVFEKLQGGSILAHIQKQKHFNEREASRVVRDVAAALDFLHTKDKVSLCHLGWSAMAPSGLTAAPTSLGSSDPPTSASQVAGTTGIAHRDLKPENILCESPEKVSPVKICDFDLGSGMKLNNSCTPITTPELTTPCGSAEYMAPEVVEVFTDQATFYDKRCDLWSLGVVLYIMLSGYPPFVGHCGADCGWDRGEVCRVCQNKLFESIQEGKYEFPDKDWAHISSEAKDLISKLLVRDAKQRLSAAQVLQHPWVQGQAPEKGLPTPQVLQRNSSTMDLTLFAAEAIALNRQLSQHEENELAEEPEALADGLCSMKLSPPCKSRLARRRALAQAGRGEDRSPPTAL

[11] = biological target: LCK (human) (UniProt P06239)
[12] = biological target: CSNK1G1 (human) (UniProt Q9HCP0)
Chain of CSNK1G1 (human) (Q9HCP0 whole entry, looked up): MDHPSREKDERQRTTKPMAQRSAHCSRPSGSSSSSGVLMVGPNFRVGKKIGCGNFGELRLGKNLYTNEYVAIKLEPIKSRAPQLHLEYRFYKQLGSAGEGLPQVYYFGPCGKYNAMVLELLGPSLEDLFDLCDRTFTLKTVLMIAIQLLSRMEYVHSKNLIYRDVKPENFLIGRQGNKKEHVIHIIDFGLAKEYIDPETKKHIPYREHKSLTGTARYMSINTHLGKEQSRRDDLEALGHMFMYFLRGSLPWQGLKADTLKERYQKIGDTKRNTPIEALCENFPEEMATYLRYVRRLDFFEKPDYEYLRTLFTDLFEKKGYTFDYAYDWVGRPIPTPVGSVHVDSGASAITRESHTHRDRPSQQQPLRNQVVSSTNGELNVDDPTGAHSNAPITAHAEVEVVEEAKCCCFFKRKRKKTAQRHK

[13] = biological target: PIK3CG (human) (UniProt P48736)
Chain of PIK3CG (human) (P48736 whole entry, looked up): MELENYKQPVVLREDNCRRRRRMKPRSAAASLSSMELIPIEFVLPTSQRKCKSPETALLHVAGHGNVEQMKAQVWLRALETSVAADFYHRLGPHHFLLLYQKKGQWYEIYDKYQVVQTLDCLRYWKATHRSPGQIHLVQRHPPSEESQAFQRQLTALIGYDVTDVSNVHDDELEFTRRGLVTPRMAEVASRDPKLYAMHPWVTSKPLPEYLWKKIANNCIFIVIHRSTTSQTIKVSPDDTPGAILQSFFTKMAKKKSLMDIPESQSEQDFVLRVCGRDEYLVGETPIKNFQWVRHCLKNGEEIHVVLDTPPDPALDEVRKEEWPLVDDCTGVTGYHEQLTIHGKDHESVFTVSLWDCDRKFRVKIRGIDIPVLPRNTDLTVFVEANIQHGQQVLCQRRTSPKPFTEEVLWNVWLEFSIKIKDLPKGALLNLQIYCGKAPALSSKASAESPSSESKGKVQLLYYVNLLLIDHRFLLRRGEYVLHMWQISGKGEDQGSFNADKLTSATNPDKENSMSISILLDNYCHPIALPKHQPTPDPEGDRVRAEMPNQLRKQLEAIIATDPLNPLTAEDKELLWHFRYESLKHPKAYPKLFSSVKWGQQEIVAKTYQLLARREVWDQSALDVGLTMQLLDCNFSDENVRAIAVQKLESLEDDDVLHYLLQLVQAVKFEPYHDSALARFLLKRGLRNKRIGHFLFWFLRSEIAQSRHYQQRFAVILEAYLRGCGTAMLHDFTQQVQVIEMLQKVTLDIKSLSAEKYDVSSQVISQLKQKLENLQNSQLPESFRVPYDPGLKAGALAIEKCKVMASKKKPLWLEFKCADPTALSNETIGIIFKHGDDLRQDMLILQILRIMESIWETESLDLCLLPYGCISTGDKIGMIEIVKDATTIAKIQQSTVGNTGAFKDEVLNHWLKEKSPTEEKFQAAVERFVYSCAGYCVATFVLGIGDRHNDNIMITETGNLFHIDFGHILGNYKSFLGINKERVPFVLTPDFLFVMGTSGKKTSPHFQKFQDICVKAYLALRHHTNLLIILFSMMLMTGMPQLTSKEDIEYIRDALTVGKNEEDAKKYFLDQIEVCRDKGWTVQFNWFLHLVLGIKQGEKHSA

[14] = biological target: AKT2 (human) (UniProt P31751)
[15] = biological target: DMPK (human) (UniProt Q09013)
[16] = biological target: MAP3K15 (human) (UniProt Q6ZN16)
[17] = biological target: CDC2L2 (human) (UniProt Q9UQ88)
[18] = biological target: TGFBR1 (human) (UniProt P36897)
[19] = biological target: SGK110 (human) (UniProt P0C264)
[20] = biological target: DAPK3 (human) (UniProt O43293)
[21] = biological target: PRKD3 (human) (UniProt O94806)
[22] = biological target: PIK3CB (human) (UniProt P42338)
[23] = biological target: CAMK4 (human) (UniProt Q16566)
[24] = biological target: RPS6KA5 KD1 (human) (UniProt O75582)
[25] = biological target: RPS6KA6 KD1 (human) (UniProt Q9UK32)
[26] = biological target: MAPK12 (human) (UniProt P53778)
Chain of MAPK12 (human) (P53778 whole entry, looked up): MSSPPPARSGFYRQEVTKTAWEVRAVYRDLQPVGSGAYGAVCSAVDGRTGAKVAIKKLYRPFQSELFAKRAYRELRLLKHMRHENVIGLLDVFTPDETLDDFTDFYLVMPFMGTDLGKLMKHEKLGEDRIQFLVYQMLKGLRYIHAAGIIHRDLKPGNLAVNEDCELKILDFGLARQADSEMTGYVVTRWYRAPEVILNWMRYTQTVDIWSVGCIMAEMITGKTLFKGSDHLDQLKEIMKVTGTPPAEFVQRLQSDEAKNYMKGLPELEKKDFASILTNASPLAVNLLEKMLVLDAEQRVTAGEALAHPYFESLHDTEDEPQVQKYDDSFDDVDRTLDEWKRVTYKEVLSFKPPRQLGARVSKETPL

[27] = biological target: RPS6KA3 KD1 (human) (UniProt P51812)
[28] = biological target: RIPK4 (human) (UniProt P57078)
[29] = biological target: CDKL2 (human) (UniProt Q92772)
[30] = biological target: PRKAA2 (human) (UniProt P54646)
[31] = biological target: AURKB (human) (UniProt Q96GD4)
[32] = biological target: NTRK3 (human) (UniProt Q16288)
Chain of NTRK3 (human) (Q16288 whole entry, looked up): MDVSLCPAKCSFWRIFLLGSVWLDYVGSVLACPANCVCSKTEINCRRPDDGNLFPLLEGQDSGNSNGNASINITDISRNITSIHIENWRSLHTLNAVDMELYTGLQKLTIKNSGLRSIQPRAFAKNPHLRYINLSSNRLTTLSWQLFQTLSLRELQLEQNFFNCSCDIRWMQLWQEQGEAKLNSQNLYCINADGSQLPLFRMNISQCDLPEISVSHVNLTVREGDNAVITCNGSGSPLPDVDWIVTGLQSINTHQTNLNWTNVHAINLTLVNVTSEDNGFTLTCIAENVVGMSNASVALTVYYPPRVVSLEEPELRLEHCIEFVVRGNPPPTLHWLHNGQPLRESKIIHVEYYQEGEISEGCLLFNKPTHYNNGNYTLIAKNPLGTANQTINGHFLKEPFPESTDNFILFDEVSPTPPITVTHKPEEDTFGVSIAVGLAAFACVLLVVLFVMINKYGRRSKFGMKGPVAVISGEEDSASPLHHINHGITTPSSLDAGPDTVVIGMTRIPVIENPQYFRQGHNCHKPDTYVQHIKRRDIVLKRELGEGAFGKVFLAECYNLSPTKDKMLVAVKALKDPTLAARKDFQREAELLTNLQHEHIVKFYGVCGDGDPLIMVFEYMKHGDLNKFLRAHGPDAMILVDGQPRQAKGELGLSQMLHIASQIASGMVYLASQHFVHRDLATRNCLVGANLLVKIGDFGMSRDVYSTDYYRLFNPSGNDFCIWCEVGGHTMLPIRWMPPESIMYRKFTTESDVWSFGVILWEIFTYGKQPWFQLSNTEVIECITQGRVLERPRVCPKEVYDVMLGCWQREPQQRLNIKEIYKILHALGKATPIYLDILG

[33] = biological target: CDK5 (human) (UniProt Q00535)
Chain of CDK5 (human) (Q00535 whole entry, looked up): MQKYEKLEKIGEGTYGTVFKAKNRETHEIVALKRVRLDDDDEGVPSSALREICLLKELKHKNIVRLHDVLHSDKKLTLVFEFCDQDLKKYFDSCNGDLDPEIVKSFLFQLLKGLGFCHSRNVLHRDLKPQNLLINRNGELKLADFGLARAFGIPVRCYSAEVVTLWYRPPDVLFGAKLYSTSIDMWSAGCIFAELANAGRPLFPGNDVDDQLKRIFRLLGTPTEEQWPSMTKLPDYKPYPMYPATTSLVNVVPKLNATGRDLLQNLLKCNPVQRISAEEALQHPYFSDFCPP

[34] = biological target: KIT (human) (UniProt P10721)
[35] = biological target: DAPK1 (human) (UniProt P53355)
[36] = biological target: CDK11B (human) (UniProt P21127)
Chain of CDK11B (human) (P21127 whole entry, looked up): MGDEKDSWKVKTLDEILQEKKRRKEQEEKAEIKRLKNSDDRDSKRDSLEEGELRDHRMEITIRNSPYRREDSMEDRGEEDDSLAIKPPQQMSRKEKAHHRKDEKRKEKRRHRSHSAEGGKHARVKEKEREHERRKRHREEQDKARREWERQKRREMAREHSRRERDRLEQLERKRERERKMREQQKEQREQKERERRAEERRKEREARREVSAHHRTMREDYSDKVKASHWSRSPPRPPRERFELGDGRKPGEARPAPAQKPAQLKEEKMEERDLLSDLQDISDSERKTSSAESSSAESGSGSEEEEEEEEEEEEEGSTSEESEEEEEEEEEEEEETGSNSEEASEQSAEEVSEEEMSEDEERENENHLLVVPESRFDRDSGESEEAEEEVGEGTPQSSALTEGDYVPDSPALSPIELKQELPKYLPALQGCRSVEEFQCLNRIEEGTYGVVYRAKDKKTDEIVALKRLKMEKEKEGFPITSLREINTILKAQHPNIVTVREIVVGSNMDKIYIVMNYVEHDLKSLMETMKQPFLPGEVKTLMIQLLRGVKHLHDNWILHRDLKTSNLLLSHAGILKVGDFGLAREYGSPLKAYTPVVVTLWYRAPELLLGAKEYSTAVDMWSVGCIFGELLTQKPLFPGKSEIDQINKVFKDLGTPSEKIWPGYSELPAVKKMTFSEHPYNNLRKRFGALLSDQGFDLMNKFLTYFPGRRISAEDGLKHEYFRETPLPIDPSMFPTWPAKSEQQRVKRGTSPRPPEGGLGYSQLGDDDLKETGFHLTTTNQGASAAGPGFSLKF

Chain of CDK18 (human) (Q07002 whole entry, looked up): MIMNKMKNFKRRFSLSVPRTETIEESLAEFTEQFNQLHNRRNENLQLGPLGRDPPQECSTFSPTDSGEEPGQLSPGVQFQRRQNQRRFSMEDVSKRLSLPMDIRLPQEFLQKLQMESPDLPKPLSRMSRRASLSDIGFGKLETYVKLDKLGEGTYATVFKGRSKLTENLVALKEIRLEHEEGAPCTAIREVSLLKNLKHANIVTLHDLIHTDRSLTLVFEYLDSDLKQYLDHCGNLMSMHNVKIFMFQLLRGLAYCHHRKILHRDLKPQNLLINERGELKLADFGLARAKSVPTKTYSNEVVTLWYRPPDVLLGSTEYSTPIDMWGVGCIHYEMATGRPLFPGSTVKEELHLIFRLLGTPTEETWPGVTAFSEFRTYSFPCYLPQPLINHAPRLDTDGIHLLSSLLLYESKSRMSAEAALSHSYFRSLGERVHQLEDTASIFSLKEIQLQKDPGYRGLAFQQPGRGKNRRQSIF

Compound	kinase still bound, per cent of control [1] [%]	kinase still bound, per cent of control [2] [%]	kinase still bound, per cent of control [3] [%]	kinase still bound, per cent of control [4] [%]	kinase still bound, per cent of control [6] [%]	kinase still bound, per cent of control [7] [%]	kinase still bound, per cent of control [8] [%]	kinase still bound, per cent of control [9] [%]	kinase still bound, per cent of control [10] [%]	kinase still bound, per cent of control [11] [%]	kinase still bound, per cent of control [12] [%]	kinase still bound, per cent of control [13] [%]	kinase still bound, per cent of control [14] [%]	kinase still bound, per cent of control [15] [%]	kinase still bound, per cent of control [17] [%]	kinase still bound, per cent of control [18] [%]	kinase still bound, per cent of control [19] [%]	kinase still bound, per cent of control [20] [%]	kinase still bound, per cent of control [21] [%]	kinase still bound, per cent of control [22] [%]	also measured
Cc1cn(-c2cc(C(=O)Nc3ccc(C)c(NC(=O)c4ccno4)c3)cc(C(F)(F)F)c2)cn1	9	100	100	100	100	100	100	100	100	4	100	100	100	100	100	100	100	100	100	100	kinase still bound, per cent of control [5]: 100%; kinase still bound, per cent of control [16]: 100%; kinase still bound, per cent of control [23]: 100%; kinase still bound, per cent of control [24]: 100%; kinase still bound, per cent of control [25]: 100%; kinase still bound, per cent of control [26]: 100%; kinase still bound, per cent of control [27]: 100%; kinase still bound, per cent of control [28]: 100%; kinase still bound, per cent of control [29]: 100%; kinase still bound, per cent of control [30]: 100%; kinase still bound, per cent of control [31]: 100%; kinase still bound, per cent of control [32]: 100%; kinase still bound, per cent of control [33]: 100%; kinase still bound, per cent of control [34]: 0%; kinase still bound, per cent of control [35]: 100%; kinase still bound, per cent of control [36]: 100%
CCOc1cc(N2CCC(O)CC2)ccc1Nc1ncc2c(n1)N(C)c1ccccc1C(=O)N2C	100	100	100	100	100	100	100	100	100	100	100	100	100	100	100	100	100	100	100	100	kinase still bound, per cent of control [5]: 100%; kinase still bound, per cent of control [16]: 100%; kinase still bound, per cent of control [23]: 100%; kinase still bound, per cent of control [24]: 100%; kinase still bound, per cent of control [25]: 100%; kinase still bound, per cent of control [26]: 100%; kinase still bound, per cent of control [27]: 100%; kinase still bound, per cent of control [28]: 100%; kinase still bound, per cent of control [29]: 100%; kinase still bound, per cent of control [30]: 100%; kinase still bound, per cent of control [31]: 100%; kinase still bound, per cent of control [32]: 100%; kinase still bound, per cent of control [33]: 100%; kinase still bound, per cent of control [34]: 100%; kinase still bound, per cent of control [35]: 100%; kinase still bound, per cent of control [36]: 100%
COc1cc(N2CCC(C(N)=O)CC2)ccc1Nc1nc(N)c(Cl)c(Nc2ccccc2S(=O)(=O)C(C)C)n1	100	100	100	100	100	100	100	100	100	14	100	100	100	100	100	100	100	100	100	100	kinase still bound, per cent of control [23]: 13%; kinase still bound, per cent of control [24]: 100%; kinase still bound, per cent of control [25]: 100%; kinase still bound, per cent of control [26]: 100%; kinase still bound, per cent of control [27]: 100%; kinase still bound, per cent of control [28]: 100%; kinase still bound, per cent of control [29]: 100%; kinase still bound, per cent of control [30]: 100%; kinase still bound, per cent of control [31]: 100%; kinase still bound, per cent of control [32]: 100%; kinase still bound, per cent of control [33]: 100%; kinase still bound, per cent of control [34]: 100%; kinase still bound, per cent of control [35]: 100%; kinase still bound, per cent of control [36]: 100%
